The values below come from patent US20100143937A1 (priority 2007, published 2010).

In this test the target is T1, NAPE-PLD (Homo sapiens, UniProt Q6IQ20).
T1 construct: made in house; host or cells: baculovirus/insect cells, pDEST8.1 vector; purified by metal chelating chromatography
T1 sequence (Q6IQ20 with tags, fused parts or gaps): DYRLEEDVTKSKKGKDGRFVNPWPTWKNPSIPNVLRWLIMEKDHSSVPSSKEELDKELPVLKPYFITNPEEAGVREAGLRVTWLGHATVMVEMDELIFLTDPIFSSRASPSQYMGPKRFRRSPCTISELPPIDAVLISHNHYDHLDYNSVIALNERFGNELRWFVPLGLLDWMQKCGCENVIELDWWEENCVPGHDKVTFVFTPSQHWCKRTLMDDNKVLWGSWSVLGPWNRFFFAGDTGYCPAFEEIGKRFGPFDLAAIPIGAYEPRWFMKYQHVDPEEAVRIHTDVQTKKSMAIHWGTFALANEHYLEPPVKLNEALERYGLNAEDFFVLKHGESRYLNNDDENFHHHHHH
The test is described as follows: NAPE-PLD PED6 fluorescence assay, Km determination. It counts as biochemical. To be noted: substrate PED6 with NAPE-PLD; FIG. 8. On the procedure: General assay conditions use the following final concentrations of the following material: NAPE-PLD at 14 nM, PED6 (substrate) at 10 μM, test compounds at 10 μM, DMSO at 1%. PED6 is purchased (see Table 1) as a lyophilized powder and stored at −20° C. A fresh substrate solution should be prepared daily. 1 mg of PED6 is dissolved in 0.88 ml of ethyl acetate and diluted into 43.12 ml assay buffer to make is a 20 μM working solution. PED6 must be kept out of direct light, as it is light sensitive.
Test compounds are diluted in an appropriate buffer. A non-limiting example is 50 mM Tris-HCl, pH 8.0, the buffer may contain DMSO, for instance, 10% DMSO. Assay buffer was 50 mM Tris-HCl, pH 8.0, 0.05% Triton X-100 and stop solution is 0.4 M HCl, 0.05% Triton X-100.
Order of addition of reagents and equipment used: • 1) Dilute enzyme (NAPE-PLD, 22 μM) to 28 nM in assay buffer. • 2) Prepare substrate (20 μM in assay buffer). • 3) Add 10 μl NAPE-PLD to assay plate using FLEXDROP. • 4) Add 2 μl compound (from compound plate) to appropriate wells of assay plate using Cy-Bio. • 5) Incubate plates, covered, at room temperature for 30 minutes (compound preincubation). • 6) Add 10 μl PED6 to assay plate using FLEXDROP. • 7) Incubate plates, covered, at room temperature for 30 minutes (enzyme reaction) • 8) Terminate the reaction by adding 20 μl of stop solution, using FLEXDROP • 9) Read on LJL Acquest. […]

In the case of `CCCCCCCCCCCCCCCC(=O)OC[C@H](COP(=O)(O)OCCNC(=O)CCCCCNc1ccc([N+](=O)[O-])cc1[N+](=O)[O-])OC(=O)CCCCC1=[N+]2C(=Cc3c(C)cc(C)n3[B-]2(F)F)C=C1` [PED6], the Km came out at 3.9 µM.
